Data taken from patent US11497740B2, “Use of Jumonji C demethylase inhibitors for the treatment and prevention of chemotherapy resistance and radioresistance in cancer” (THE BOARD OF REGENTS OF THE UNIVERSITY OF TEXAS SYSTEM, priority 2016, dated 2022).

What was measured:
Type in all cases: cell-based, human
[1] = tested on: H1355 T16; assay: MTS cell viability assay, H1355 T16 resistant variant vs H1355 Parental; conditions: for H1355 T16 SR (Selectivity Ratio): SR = [IC50 of Parental]/[IC50 of Resistant], H1355 T16 vs H1355 Parental; for cross-resistance of paclitaxel+carboplatin resistant variant: H1355 T16; for loss of cell viability: H1355 T16 and H1355 Parental
Protocol: (§1) NSCLC lines were treated with paclitaxel+carboplatin combination, given in a ˜2:3 wt/wt ratio, to mirror the clinical dosage values of ˜225 mg/m2 and ˜330 mg/m2, paclitaxel and carboplatin respectively. Note that considering the molecular weights of the two drugs, this translates to approximately a 1 to 3.4 molar ratio. Drugs were given in cycles, following a drug on/drug off treatment scheme. Each cycle consisted of 4-5 days of drug treatment and drug-free culturing for about 1-2 weeks or more to allow the surviving cells to repopulate the plate. […] Untreated parental cells were simultaneously maintained at all times for comparison. Cell viability was assessed in 96-well plates using standard MTS assays (Promega). Treatment duration in MTS assays was 4 days. Drugs were tested in two- or four-fold serial dilutions, totaling 8 different drug concentrations, with 8 replicates per concentration. Response was validated in multiple replicate plates (n≥3).
(§2) Cell viability was assessed by standard MTS assays using Promega's CellTiter reagents. Eight drug concentrations given as two- or four-fold dilutions were tested for each chemotherapeutic agent. In addition, each experiment contained eight replicates per concentration and the entire assay was performed in multiple replicates (n≥3).

[2] = tested on: H1299 T18; assay: MTS cell viability assay, H1299 T18 resistant variant vs H1299 Parental; conditions: for H1299 T18 SR (Selectivity Ratio): SR = [IC50 of Parental]/[IC50 of Resistant], H1299 T18 vs H1299 Parental; for cross-resistance of paclitaxel+carboplatin resistant variants: resistant variants (FIGS. 2D, 9); for loss of cell viability: H1299 T18 and H1299 Parental
Protocol: as §1, §2

[3] = tested on: HCC4017 T5; assay: MTS cell viability assay, HCC4017 T5 resistant variant vs parental; conditions: HCC4017 T5 and parental
Protocol: as §1, §2

[4] = tested on: H1693 T8; assay: MTS cell viability assay, H1693 T8 resistant variant vs parental; conditions: H1693 T8 and parental
Protocol: as §1, §2

| Structure (SMILES) | H1355 T16 SR (Selectivity Ratio) [1] | H1299 T18 SR (Selectivity Ratio) [2] | other results |
| --- | --- | --- | --- |
| COc1ccc(CCc2nc3cc(-c4c(C)noc4C)ccc3n2C[C@H](C)N2CCOCC2)cc1Cl [SGC-CBP30] | 0.9 | 1.3 |  |
| NC1CC1c1ccccc1 (stereo not drawn) [2-PCPA] | 1.8 | 1.3 |  |
| NC1(c2ccc(-c3nc4ccn5c(=O)[nH]nc5c4cc3-c3ccccc3)cc2)CCC1 [MK-2206] | 1.8 | 0.7 |  |
| CCC1=C[C@@H]2CN(C1)Cc1c([nH]c3ccccc13)[C@@](C(=O)OC)(c1cc3c(cc1OC)N(C)[C@H]1[C@@](O)(C(=O)OC)[C@H](OC(C)=O)[C@]4(CC)C=CCN5CC[C@]31[C@@H]54)C2 [Vinorelbine] | 0.002 | 0.03 | cross-resistance of paclitaxel+carboplatin resistant variant [1]: cross-resistant; cross-resistance of paclitaxel+carboplatin resistant variants [2]: cross-resistant |
| CN(C)c1ccc(C(=O)NCCCCCCC(=O)NO)cc1 [M344] | 1.8 | 1.1 |  |
| O=C1C(=Cc2cccnc2)C(=O)c2ccccc21 [PRT 4165] | 1.4 | 1.0 |  |
| O=C(CCCCCN1C(=O)c2cccc3cccc(c23)C1=O)NO [Scriptaid] | 1.4 | 1.5 |  |
| CCc1c2c(nc3ccc(OC(=O)N4CCC(N5CCCCC5)CC4)cc13)-c1cc3c(c(=O)n1C2)COC(=O)[C@]3(O)CC [Irinotecan] | 2.7 | 1.1 |  |
| Clc1ccc(N/N=C(/c2ccccc2)c2ccccn2)nc1 (single isomer, unassigned) [Z isomer (Inactive)] | 1.0 | 1.1 | loss of cell viability [1]: no loss of cell viability; loss of cell viability [3]: No loss in cell viability; loss of cell viability [4]: No loss in cell viability; loss of cell viability [2]: no viability loss |
| Cc1sc2c(c1C)C(c1ccc(Cl)cc1)=N[C@@H](CC(=O)OC(C)(C)C)c1nnc(C)n1-2 [JQ1] | 6.6 | 0.6 |  |
| CC/C(=C(\c1ccccc1)c1ccc(OCCN(C)C)cc1)c1ccccc1 [Tamoxifen] | 1.0 | 1.0 |  |
| Nc1nccc2c1ncn2C1C=C(CO)C(O)C1O (stereo not drawn) [DZNep] | 1.7 | 0.5 |  |
| COc1cccc2c1C(=O)c1c(O)c3c(c(O)c1C2=O)C[C@@](O)(C(=O)CO)C[C@@H]3O[C@H]1C[C@H](N)[C@H](O)[C@H](C)O1 [Doxorubicin] | 0.25 | 0.04 | cross-resistance of paclitaxel+carboplatin resistant variant [1]: cross-resistant; cross-resistance of paclitaxel+carboplatin resistant variants [2]: cross-resistant |
| Nc1ncn([C@@H]2O[C@H](CO)[C@@H](O)[C@H]2O)c(=O)n1 [5-azacytidine] | 2.6 | 0.2 |  |
| C/C=C1\NC(=O)[C@H]2CSSCC/C=C/[C@H](CC(=O)N[C@H](C(C)C)C(=O)N2)OC(=O)[C@H](C(C)C)NC1=O [Depsipeptide] | 0.03 | 0.05 | cross-resistance of paclitaxel+carboplatin resistant variant [1]: cross-resistant; cross-resistance of paclitaxel+carboplatin resistant variants [2]: cross-resistant |
| CCCC(CCC)C(=O)O [Valproic acid] | 1.3 | 1.4 |  |
| Oc1nc(-c2ccc(C(F)(F)F)cc2)nc2c1CSCC2 [XAV939] | 1.0 | 2.7 |  |
| CC(=O)O[C@@]12CO[C@@H]1C[C@H](O)[C@@]1(C)C(=O)[C@H](O)C3=C(C)[C@@H](OC(=O)[C@H](O)[C@@H](NC(=O)OC(C)(C)C)c4ccccc4)C[C@@](O)([C@@H](OC(=O)c4ccccc4)[C@H]21)C3(C)C [Docetaxel] | 0.002 | 0.03 | cross-resistance of paclitaxel+carboplatin resistant variant [1]: cross-resistant; cross-resistance of paclitaxel+carboplatin resistant variants [2]: cross-resistant |
| N.N.O=C([O-])C1(C(=O)[O-])CCC1.[Pt+2] [Carboplatin] | 1.2 | 0.8 |  |
| CC[C@H](C)n1cc(C)c2c(C(=O)NCc3c(C)cc(C)[nH]c3=O)cc(-c3ccc(N4CCNCC4)nc3)cc21 [GSK 126] | 0.8 | 1.0 |  |
| CC(=O)O[C@H]1C(=O)[C@@]2(C)[C@H]([C@H](OC(=O)c3ccccc3)[C@]3(O)C[C@H](OC(=O)[C@H](O)[C@@H](NC(=O)c4ccccc4)c4ccccc4)C(C)=C1C3(C)C)[C@]1(OC(C)=O)CO[C@@H]1C[C@@H]2O [Paclitaxel] | 0.02 | 0.03 |  |
| CC(/C=C/C(=O)NO)=C\[C@@H](C)C(=O)c1ccc(N(C)C)cc1 [Trichostatin A] | 2.6 | 1.8 |  |
| c1cc(SSc2ccns2)sn1 [NU 9056] | 1.0 | 2.0 |  |
| COc1cc2nc(N3CCCN(C)CC3)nc(NC3CCN(Cc4ccccc4)CC3)c2cc1OC [BIX 01294] | 1.9 | 0.9 |  |
| O=C(/C=C/c1cccnc1)NCCCCC1CCN(C(=O)c2ccccc2)CC1 [FK866] | 2.1 | 0.1 |  |
| CCOC(=O)CCNc1cc(N2CCc3ccccc3CC2)nc(-c2cccnc2)n1 [GSK-J5] |  |  | loss of cell viability [1]: no loss of cell viability; loss of cell viability [2]: no effect on cell viability |
| O=C(/C=C/N1C[C@H]2C[C@@H]1CN2c1ccccn1)c1ccccc1O [PFI 3] | 2.5 | 1.1 |  |
